Laboratory results: the NIST ThermoML archive (doi:10.1016/j.fluid.2013.06.017)
± gives the expanded uncertainty stated by the source.

Conditions: Liquid, Closed cell (Static) method

## CC(F)F [1,1-difluoroethane]
258.15 K
  vapor or sublimation pressure: 148.6 ± 1 kPa
268.15 K
  vapor or sublimation pressure: 219.4 ± 1.1 kPa
278.15 K
  vapor or sublimation pressure: 314.1 ± 1.1 kPa
288.15 K
  vapor or sublimation pressure: 437.8 ± 1.2 kPa

## F/C=C/C(F)(F)F [trans-1,3,3,3-tetrafluoropropene]
258.15 K
  vapor or sublimation pressure: 120.2 ± 1 kPa
268.15 K
  vapor or sublimation pressure: 179.3 ± 1 kPa
278.15 K
  vapor or sublimation pressure: 259.2 ± 1.1 kPa
288.15 K
  vapor or sublimation pressure: 364.2 ± 1.1 kPa
